In patent US20260373193A1, “CARCINOGENESIS REDUCTION WITH PENTAAZA MACROCYLIC RING COMPLEX” (GALERA LABS, LLC, priority 2023, published 2026):

Columns and labels:
established tumors = conditions: cited from earlier work
[1] = tested on: Non-Small Cell Lung Carcinoma Cell Lines; conditions: NSCLC cell lines; with cisplatin or cisplatin plus radiation; cited from earlier work
[2] = tested on: ovarian masses or hemorrhagic cysts; test: incidence of ovarian masses or hemorrhagic cysts at necropsy; format: in vivo, mouse (female BALB/c); conditions: for # Ovary Masses/Cysts / % Yield (percentage of mice with ovarian masses or hemorrhagic cysts): GC4419 24 mg/kg i.p.; for occurrence of ovarian masses and hemorrhagic cysts vs untreated: final results (FIG. 4)
Description: All animal studies conducted used female BALB/c mice irradiated at 77-91 days of age and housed for a lifetime study to determine rates of carcinogenesis and survival. Animals were purchased from Charles River Laboratory, shipped to Brookhaven National Laboratory, and irradiated with the doses and ion species described below.
Animals were treated or not with GC4419. Those animals treated with GC4419 followed the following strategy. GC4419 was delivered at a dose of 24 mg/kg (mice were weighed prior to drug delivery) interperitoneally (i.p.) at roughly 45-60 minutes prior to radiation exposure. GC4419 was then provided i.p. for the next 6 days, and the animals were shipped to UT Southwestern (UTSW) Medical Center for temporary quarantine before returning to the animal facility. Upon return to UTSW the animals were treated with GC4419 i.p. weekly for another 11 weeks for a total of 12 weeks on treatment.
Radiation exposures were whole body. The galactic cosmic ray (GCR) simulation exposures used the beam line at the NASA Space Radiation Laboratory at Brookhaven National Lab (BNL) and the γ-ray exposures used a ^137Cs source at BNL. Subsequent to single dose irradiation, animals were returned to their cages.
Galactic cosmic rays (GCR) are heavy ion radiation characteristic of the deep space environment, and the GCR simulation (GCRsim) at BNL mimics the complex radiation environment in space. The GCRsim ions used are described in Table 1 below.
Pathological endpoints were also considered. Specifically, lung cancer induction, or carcinogenesis, and other tumors that are evident in numbers large enough to consider as secondary endpoints. These endpoints are described in the following tables and figure. The term “masses” is used to describe an abnormal growth, evident by eye, within a given tissue; for example, the term “lung masses” is used to describe abnormal tissues found in the lung that are collected for pathologic examination.
Given prior experience with the mouse model of radiation-induced carcinogenesis, it is expected that most, if not all, of the lung masses are tumors. For the ovarian masses, some proportion of the masses are expected to be tumors. For observations of hepatosplenomegaly, many of the enlarged livers and spleens may not reflect tumors of those organs. These may, however, may be present as result of hematologic malignancies, such as leukemias, but that was not assessed in this experiment.
Table 3 presents the incidence of ovarian masses and hemorrhagic cysts observed at necropsy by treatment cohort, including preliminary data for certain γ-ray cohorts through approximately 600 days post-irradiation and for unirradiated animals treated with GC4419 (Control+GC4419) cohort through approximately 400 days post-irradiation. FIG. 4 presents final results for incidence of ovarian masses and hemorrhagic cysts.

[Cl][Mn][Cl].c1cc2nc(c1)CN[C@H]1CCCC[C@@H]1NCCN[C@H]1CCCC[C@@H]1NC2 [GC4419]
efficacy of radiation and other therapies (established tumors): enhance the efficacy of radiation and other therapies
response to cisplatin and cisplatin plus radiation [1]: Enhances the Response of Non-Small Cell Lung Carcinoma Cell Lines to Cisplatin and Cisplatin Plus Radiation
# Ovary Masses/Cysts ([2]; GCRsim 0.4 Gy, 224 mice): 26
% Yield (percentage of mice with ovarian masses or hemorrhagic cysts) ([2]; GCRsim 0.4 Gy, 224 mice, untreated pair 12.5): 11.6%
# Ovary Masses/Cysts ([2]; GCRsim 0.75 Gy, 248 mice): 43
% Yield (percentage of mice with ovarian masses or hemorrhagic cysts) ([2]; GCRsim 0.75 Gy, 248 mice, untreated pair 24.2): 17.3%
occurrence of ovarian masses and hemorrhagic cysts vs untreated ([2]; GCRsim 0.75 Gy): markedly decreased occurrence of ovarian masses and hemorrhagic cysts
# Ovary Masses/Cysts ([2]; unirradiated (0 Gy), 235 mice, preliminary, approx. 400 days): 0
% Yield (percentage of mice with ovarian masses or hemorrhagic cysts) ([2]; unirradiated (0 Gy), 235 mice, preliminary, approx. 400 days, untreated pair 10.6): 0.0%
occurrence of ovarian masses and hemorrhagic cysts vs untreated ([2]; unirradiated): markedly decreased occurrence of ovarian masses and hemorrhagic cysts
# Ovary Masses/Cysts ([2]; γ-ray 0.75 Gy, 248 mice, preliminary for certain γ-ray cohorts (approx. 600 days)): 22
% Yield (percentage of mice with ovarian masses or hemorrhagic cysts) ([2]; γ-ray 0.75 Gy, 248 mice, preliminary for certain γ-ray cohorts (approx. 600 days), untreated pair 28.9): 8.8%
occurrence of ovarian masses and hemorrhagic cysts vs untreated ([2]; γ-ray 0.75 Gy, statistically significant, p<0.05): markedly decreased occurrence of ovarian masses and hemorrhagic cysts
# Ovary Masses/Cysts ([2]; γ-ray 1.5 Gy, 248 mice, preliminary for certain γ-ray cohorts (approx. 600 days)): 24
% Yield (percentage of mice with ovarian masses or hemorrhagic cysts) ([2]; γ-ray 1.5 Gy, 248 mice, preliminary for certain γ-ray cohorts (approx. 600 days), untreated pair 21.7): 9.6%
